Measured values published in patent US8247211B2, “Glycopeptide antibiotics” (American Cyanamid Company, priority 2001, dated 2012).
Values after ≈ are worked out from the molar mass of the structure shown.

Experiments:
Assay in all cases: In vitro antibacterial evaluation: minimum inhibitory concentration (MIC), broth dilution method
Type in all cases: cell-based
Escherichia coli = test system: Escherichia coli
Outline: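 NCCLS M7-A2 broth dilution with Mueller-Hinton II, testing 64-0.06 μg/mL antibiotic against 5×10^5 CFU/mL inocula. Test strains include recent methicillin-, penicillin- or vancomycin-resistant clinical isolates. MIC is the lowest concentration preventing growth.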

Enterococcus sp. = test system: Enterococcus sp.
Outline: (§1)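 Inoculum: 5×10^5 CFU/mL. Range: 64-0.06 μg/mL. Medium: Muller-Hinton II […]; NCCLS M7-A2 broth dilution. Endpoint: lowest concentration inhibiting growth. Strains include methicillin-, penicillin- and/or vancomycin-resistant clinical isolates.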

Staphylococcus sp. = details: broth dilution, 18 hours at 35° C.
Outline: as §1

Streptococcus sp. = test system: Streptococcus sp.
Outline: as §1

[1] = broth dilution, inoculum 5×10^5 CFU/mL, 18 hours at 35° C.

For CC(c1ccccc1)C1NC(=O)CNC(=O)C(CO)NC(=O)C(C(O)C2CNC(=N)N2C2OC(CO)C(O)C(O)C2O)NC(=O)C(C(O)C2CNC(=N)N2)NC(=O)C(Cc2ccc(OC3OC(CO)C(OC4OC5COC(c6ccc(-c7ccc(Cl)cc7)cc6)OC5C(O)C4O)C(O)C3O)cc2)NC1=O (stereo not drawn) [Example 178], the “MIC Escherichia coli (ATCC 25922)” value (Escherichia coli; strain ATCC 25922) was over 64 µg/mL, the “MIC Escherichia coli (GC 4559)” value (Escherichia coli; strain GC 4559) was over 64 µg/mL and the “MIC Escherichi coli (GC 4560)” value (Escherichia coli; strain GC 4560) was 16 µg/mL (≈ 10.7 µM). For the same molecule, the “MIC Enterococcus avium (GC 4558)” value (Enterococcus sp.; [1]) was 4 µg/mL (≈ 2.68 µM), the “MIC Enterococcus faecalis (ATCC 29212)” value (Enterococcus sp.; [1]) was 4 µg/mL (≈ 2.68 µM) and the “MIC Enterococcus faecalis (GC 2242)” value (Enterococcus sp.; [1]) was 2 µg/mL (≈ 1.34 µM). The “MIC Enterococcus faecalis (GC 2691)” value (Enterococcus sp.; [1]) was 1 µg/mL (≈ 0.669 µM), the “MIC Enterococcus faecalis (GC 3059)” value (Enterococcus sp.; [1]) was 16 µg/mL (≈ 10.7 µM) and the “MIC Enterococcus faecalis (GC 4552)” value (Enterococcus sp.; [1]) was 4 µg/mL (≈ 2.68 µM). The “MIC Enterococcus faecalis (GC 4553)” value (Enterococcus sp.; [1]) was 2 µg/mL (≈ 1.34 µM), the “MIC Enterococcus faecalis (GC 4554)” value (Enterococcus sp.; [1]) was 2 µg/mL (≈ 1.34 µM) and the “MIC Enterococcus faecalis (GC 6189)” value (Enterococcus sp.; [1]) was 0.5 µg/mL (≈ 0.335 µM). For the same molecule, the “MIC Enterococcus faecium (GC 2243)” value (Enterococcus sp.; [1]) was 4 µg/mL (≈ 2.68 µM), the “MIC Enterococcus faecium (GC 4556)” value (Enterococcus sp.; [1]) was 4 µg/mL (≈ 2.68 µM) and the “MIC Enterococcus faecium (GC 4557)” value (Enterococcus sp.; [1]) was 8 µg/mL (≈ 5.36 µM). The “MIC Enterococcus faecalis (ATCC 29212)” value (Enterococcus sp.; strain ATCC 29212) was 4 µg/mL (≈ 2.68 µM), the “MIC Enterococcus faecalis (GC 2242)” value (Enterococcus sp.; strain GC 2242) was 2 µg/mL (≈ 1.34 µM) and the “MIC Enterococcus faecium (GC 2243)” value (Enterococcus sp.; strain GC 2243) was 4 µg/mL (≈ 2.68 µM). For the same molecule, the “MIC Enterococcus faecalis (GC 2691)” value (Enterococcus sp.; strain GC 2691) was 1 µg/mL (≈ 0.669 µM), the “MIC Enterococcus faecalis (GC 3059)” value (Enterococcus sp.; strain GC 3059) was 16 µg/mL (≈ 10.7 µM) and the “MIC Enterococcus faecalis (GC 4552)” value (Enterococcus sp.; strain GC 4552) was 4 µg/mL (≈ 2.68 µM). For the same molecule, the “MIC Enterococcus faecalis (GC 4553)” value (Enterococcus sp.; strain GC 4553) was 2 µg/mL (≈ 1.34 µM), the “MIC Enterococcus faecalis (GC 4554)” value (Enterococcus sp.; strain GC 4554) was 2 µg/mL (≈ 1.34 µM) and the “MIC Enterococcus faecium (GC 4556)” value (Enterococcus sp.; strain GC 4556) was 4 µg/mL (≈ 2.68 µM). The “MIC Enterococcus faecium (GC 4557)” value (Enterococcus sp.; strain GC 4557) was 8 µg/mL (≈ 5.36 µM), the “MIC Enterococcus avium (GC 4558)” value (Enterococcus sp.; strain GC 4558) was 4 µg/mL (≈ 2.68 µM) and the “MIC Enterococcus faecalis (GC 6189)” value (Enterococcus sp.; strain GC 6189) was 0.5 µg/mL (≈ 0.335 µM). The “MIC Coagulase Negative Staphylococcus (GC 4547)” value (Staphylococcus sp.; 5×10^5 CFU/mL) was 32 µg/mL (≈ 21.4 µM), the “MIC Coagulase Negative Staphylococcus (GC 4548)” value (Staphylococcus sp.; 5×10^5 CFU/mL) was 0.5 µg/mL (≈ 0.335 µM) and the “MIC Coagulase Negative Staphylococcus (GC 4549)” value (Staphylococcus sp.; 5×10^5 CFU/mL) was 2 µg/mL (≈ 1.34 µM). The “MIC Coagulase Negative Staphylococcus (GC 4551)” value (Staphylococcus sp.; 5×10^5 CFU/mL) was 4 µg/mL (≈ 2.68 µM), the “MIC Coagulase Negative Staphylococcus (GC 6257)” value (Staphylococcus sp.; 5×10^5 CFU/mL) was 2 µg/mL (≈ 1.34 µM) and the “MIC Staphylococcus aureus (ATCC 29213)” value (Staphylococcus sp.; 5×10^5 CFU/mL) was 16 µg/mL (≈ 10.7 µM). The “MIC Staphylococcus aureus (GC 1131)” value (Staphylococcus sp.; 5×10^5 CFU/mL) was 4 µg/mL (≈ 2.68 µM), the “MIC Staphylococcus aureus (GC 3051)” value (Staphylococcus sp.; 5×10^5 CFU/mL) was 8 µg/mL (≈ 5.36 µM) and the “MIC Staphylococcus aureus (GC 3053)” value (Staphylococcus sp.; 5×10^5 CFU/mL) was 4 µg/mL (≈ 2.68 µM). The “MIC Staphylococcus aureus (GC 4541)” value (Staphylococcus sp.; 5×10^5 CFU/mL) was 8 µg/mL (≈ 5.36 µM), the “MIC Staphylococcus aureus (GC 4542)” value (Staphylococcus sp.; 5×10^5 CFU/mL) was 8 µg/mL (≈ 5.36 µM) and the “MIC Staphylococcus aureus (GC 4544)” value (Staphylococcus sp.; 5×10^5 CFU/mL) was 8 µg/mL (≈ 5.36 µM). The “MIC Staphylococcus aureus (GC 4545)” value (Staphylococcus sp.; 5×10^5 CFU/mL) was 4 µg/mL (≈ 2.68 µM), the “MIC Staphylococcus aureus-SMITH (GC 4543)” value (Staphylococcus sp.; 5×10^5 CFU/mL) was 4 µg/mL (≈ 2.68 µM) and the “MIC Staphylococcus haemolyticus (GC 4546)” value (Staphylococcus sp.; 5×10^5 CFU/mL) was 8 µg/mL (≈ 5.36 µM). The “MIC Staphylococcus aureus (ATCC 29213)” value (Staphylococcus sp.; strain ATCC 29213) was 16 µg/mL (≈ 10.7 µM), the “MIC Staphylococcus aureus (GC 1131)” value (Staphylococcus sp.; strain GC 1131) was 4 µg/mL (≈ 2.68 µM) and the “MIC Staphylococcus aureus (GC 3051)” value (Staphylococcus sp.; strain GC 3051) was 8 µg/mL (≈ 5.36 µM). The “MIC Staphylococcus aureus (GC 3053)” value (Staphylococcus sp.; strain GC 3053) was 4 µg/mL (≈ 2.68 µM), the “MIC Staphylococcus aureus (GC 4541)” value (Staphylococcus sp.; strain GC 4541) was 8 µg/mL (≈ 5.36 µM) and the “MIC Staphylococcus aureus (GC 4542)” value (Staphylococcus sp.; strain GC 4542) was 8 µg/mL (≈ 5.36 µM). The “MIC Staphylococcus aureus (GC 4544)” value (Staphylococcus sp.; strain GC 4544) was 8 µg/mL (≈ 5.36 µM), the “MIC Staphylococcus aureus (GC 4545)” value (Staphylococcus sp.; strain GC 4545) was 4 µg/mL (≈ 2.68 µM) and the “MIC Streptococcus agalactiae (GC 4564)” value (Streptococcus sp.; [1]) was under 0.06 µg/mL. For the same molecule, the “MIC Streptococcus pneumoniae (ATCC 6301)” value (Streptococcus sp.; [1]) was under 0.06 µg/mL, the “MIC Streptococcus pneumoniae (GC 1894)” value (Streptococcus sp.; [1]) was under 0.06 µg/mL and the “MIC Streptococcus pneumoniae (GC 4565)” value (Streptococcus sp.; [1]) was under 0.06 µg/mL. For the same molecule, the “MIC Streptococcus pyogenes (GC 4563)” value (Streptococcus sp.; [1]) was 0.12 µg/mL (≈ 0.0803 µM), the “MIC Streptococcus pneumoniae (ATCC 6301)” value (Streptococcus sp.; strain ATCC 6301) was under 0.06 µg/mL and the “MIC Streptococcus pneumoniae (GC 1894)” value (Streptococcus sp.; strain GC 1894) was under 0.06 µg/mL. The “MIC Streptococcus pyogenes (GC 4563)” value (Streptococcus sp.; strain GC 4563) was 0.12 µg/mL (≈ 0.0803 µM), the “MIC Streptococcus agalactiae (GC 4564)” value (Streptococcus sp.; strain GC 4564) was under 0.06 µg/mL and the “MIC Streptococcus pneumoniae (GC 4565)” value (Streptococcus sp.; strain GC 4565) was under 0.06 µg/mL.
